Results from article PMC9189904, “Functional Properties of Two Distinct PTH1R Mutants Associated With Either Skeletal Defects or Pseudohypoparathyroidism” (JBMR Plus, 2022).
Substitutions are numbered along the chain they refer to.

What was measured:
Format in all cases: cell-based
[1] = biological target: T1, PTH1R‐V204E (Homo sapiens, UniProt Q03431, V204E); assay: β-arrestin2-YFP recruitment by fluorescence microscopy in GBR-24 cells, ImageJ analysis; details: ligand 30nM
T1 construct: expressed in transfected cells; plasmid TG-928 made by VectorBuilder
T1 sequence (Q03431 27-593 E90Y/S91D/E92V/E93P/K95Y/E96A/V204E): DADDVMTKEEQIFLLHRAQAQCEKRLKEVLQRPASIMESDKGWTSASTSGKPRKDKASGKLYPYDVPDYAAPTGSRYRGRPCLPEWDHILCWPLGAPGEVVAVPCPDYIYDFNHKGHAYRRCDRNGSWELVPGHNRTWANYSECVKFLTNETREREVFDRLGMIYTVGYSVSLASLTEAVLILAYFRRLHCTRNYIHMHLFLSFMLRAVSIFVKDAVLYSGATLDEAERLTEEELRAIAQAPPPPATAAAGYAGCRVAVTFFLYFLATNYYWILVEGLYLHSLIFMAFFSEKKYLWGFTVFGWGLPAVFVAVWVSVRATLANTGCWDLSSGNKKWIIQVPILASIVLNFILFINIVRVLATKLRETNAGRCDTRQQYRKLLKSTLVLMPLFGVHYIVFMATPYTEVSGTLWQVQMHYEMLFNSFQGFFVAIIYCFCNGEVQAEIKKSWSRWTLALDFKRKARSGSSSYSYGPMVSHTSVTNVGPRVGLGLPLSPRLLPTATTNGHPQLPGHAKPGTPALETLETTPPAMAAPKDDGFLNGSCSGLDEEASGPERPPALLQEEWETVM
Procedure: (§1) Recruitment of β‐arrestin was assessed in GBR‐24 cells (HEK293/GloSensor (GS‐22A)‐derived cells stably expressing β‐arrestin2^YFP)^( [30] ^) that were transiently transfected to express PTH1R‐WT or a mutant derivative.
(§2) Fluorescent microscopy images were analyzed using ImageJ software, ver. […] The freehand tool was used to define the area analyzed for each cell, and the Measure>Analyze Particle tool was used to obtain the number of particles, the total area and the mean grayscale (intensity) of each particle for each cell. For each cell, the number of particles was divided by the total area to obtain the Particles/Total Area.

[2] = biological target: T2, PTH1R‐R186H (Homo sapiens, UniProt Q03431, R186H); assay: as above; details: ligand 30nM
T2 construct: expressed in transfected cells; plasmid TG-907 made by VectorBuilder
T2 sequence (Q03431 27-593 E90Y/S91D/E92V/E93P/K95Y/E96A/R186H): T1 sequence (Q03431 27-593 E90Y/S91D/E92V/E93P/K95Y/E96A/V204E) with R160H, E178V
Procedure: as §1, §2

[3] = biological target: T3, PTH1R‐P132L (Homo sapiens, UniProt Q03431, P132L); assay: as above; details: ligand 30nM
T3 construct: expressed in transfected cells; plasmid TG-395 in pCDNA1
T3 sequence (Q03431 27-593 E90Y/S91D/E92V/E93P/K95Y/E96A/P132L): T1 sequence (Q03431 27-593 E90Y/S91D/E92V/E93P/K95Y/E96A/V204E) with P106L, E178V
Procedure: as §1, §2

[4] = biological target: T4, PTH1R‐WT (Homo sapiens, UniProt Q03431); assay: as above; details: ligand 30nM
T4 construct: expressed in transfected cells; plasmid TG-906 made by VectorBuilder
T4 sequence (Q03431 27-593 E90Y/S91D/E92V/E93P/K95Y/E96A): T1 sequence (Q03431 27-593 E90Y/S91D/E92V/E93P/K95Y/E96A/V204E) with E178V
Procedure: as §1, §2

[5] = biological target: T1, PTH1R‐V204E; assay: Fluorescence microscopy of PTH(1-34)TMR-PTH1R complexes in GS-22a cells, ImageJ analysis; details: ligand 30nM, means of six cells, representative experiment
Procedure: (§3) PTH analog binding to WT and mutant PTH1Rs was assessed by fluorescence microscopy in transiently transfected GS‐22A cells as described.^( [30], [31] ^) Briefly, the cells were transfected in six‐well plates, reseeded at 24 hours onto coverslips in six‐well plates, and at 48 hours posttransfection processed for analysis. The plates were placed on ice and the cells on coverslips were rinsed with cold HB. Then 1.0 mL of HB was then added to each well, followed by Alexafluor‐488‐labeled mouse monoclonal anti‐HA immunoglobulin G (IgG) antibody (BioLegend; Cat. No. 901509) at a concentration of 1 μg/mL, and the plate was incubated at 4°C for 1 hour. […] The plate was then shifted to room temperature and incubations continued for 30 minutes. The mixtures were then removed, the cells were rinsed twice with HB, fixed for 5 minutes in 3.7% paraformaldehyde buffer (Boston BioProducts, Inc., Ashland, MA, USA; Cat. No. BM‐158), rinsed with HB, then mounted on a glass microscope slide in Vectashield media containing 4′,6‐diamidino‐2‐phenylindole (DAPI) (Vector Laboratories, Burlingame, CA, USA; Cat. No. H1500) and imaged at magnification ×400 using a Nikon Eclipse fluorescence microscope equipped with a CCD camera configured with SPOT imaging software (Nikon, Tokyo, Japan). Regions of interest were digitally expanded 5× or 7× in PowerPoint software (Microsoft Corp., Redmond, WA, USA).
as §2

[6] = biological target: T2, PTH1R‐R186H; assay: as above; details: ligand 30nM, means of six cells, representative experiment
Procedure: as §3, §2

[7] = biological target: T4, PTH1R‐WT; assay: as above; details: ligand 30nM, 30 min 4°C then 30 min room temperature, means of six cells, representative experiment
Procedure: as §3, §2

[8] = GBR24 cells, means of six cells
[9] = GBR-24 cells, 30 min, a representative cell

With “tetramethylrhodamine (TMR)‐^ n L ^8,21‐rat‐PTH(1‐34) [PTH(1‐34)^TMR]” the “Particles/Total Area (βArrestinYFP-ligand complexes)” value (“Particles/Total Area” for short) [1, 8] was 496 ± 44, the “Pearson correlation coefficient (R), colocalization of ligand with β-arrestin2YFP” value (“Pearson correlation coefficient (R)” below) [1, 9] was 0.69 and the “Particles/Total Area” value [2, 8] was 603 ± 81. For the same substance, the “Pearson correlation coefficient (R)” value [2, 9] was 0.86, the “Particles/Total Area” value [3, 8] was 223 ± 66 and the “ligand binding and β-arrestin2YFP recruitment (microscopy signal)” value ([3]; GBR-24 cells, 30 min (Fig. 4A)) was “Only faint signal”. For the same substance, the “Particles/Total Area” value ([4]; GBR24 cells, 30 min room temperature, means of six cells, representative experiment) was 704 ± 22, the “Pearson correlation coefficient (R)” value [4, 9] was 0.97 and the “Particles /Total Area” value [5] was 826 ± 78. For the same substance, the “Particles /Total Area” value [6] was 1162 ± 95 and the “Particles /Total Area” value [7] was 1011 ± 57.
